Laboratory results from publication PMC10502144, “Anti-methicillin-resistant Staphylococcus aureus activity and safety evaluation of 14-O-[(5-ethoxycarbonyl-4,6-dimethylpyrimidine-2-yl) thioacetyl] mutilin (EDT)” (Scientific Reports, 2023).
Where a name gives a salt, the structure may show the parent alone. Read-outs that look alike come from different tables or passages of the source.

How the values were obtained:
MRSA-337371 [1] = assay: Post-antibiotic effect (PAE) test, viable counting; type: cell-based, methicillin-resistant Staphylococcus aureus; details: 1×, 2×, 4× and 8× MIC, 1 h exposure
Procedure: The PAE of EDT against MRSA-337371 was determined using a standard viable counting method. We selected 1 × , 2 × , 4 × and 8 × MICs of EDT and tiamulin (0.0313 and 0.5 μg/mL, respectively), to conduct PAE test on MRSA strains. The strains (1 × 10^5 CFU/mL) were placed in MHB broth test tubes containing the above four concentrations of EDT and tiamulin, respectively, and cultured in a shaking bed at 37 °C for 1 h, followed by centrifuging for 10 min at 4000 r/min. The supernatants were discarded and the precipitations were dissolved with 2 mL normal saline to centrifuge. The same procedure was repeated three times. The final bacterial precipitates were taken and cultured in MHB broth with the initial concentration of 5.5 Log CFU/mL at 37 °C in a shaking bed. Samples were then taken at 0, 1, 2, 3, 4, 5, 6, 8, 12, 18 and 24 h to dilute 10–100,000 times and the 10 μL dilutions were evenly smear on MHA plate medium to culture at 37 °C for 48 h. Finally, the average numbers of colonies on the plates were obtained and the PAE values were calculated as hour using equation PAE = T − C, in which T was the time required for the increase of 1 log10 CFU/mL after the removal of drugs and C was the time required for the number of MRSA in the control tube to increase by 1 log10 CFU/mL. Experiments were performed in triplicate.

MRSA-337371 [2] = assay: microbe, parasite or virus in culture; type: cell-based, methicillin-resistant Staphylococcus aureus; details: for MIC: Staphylococcus aureus, MRSA
Procedure: We performed resistance induction tests on EDT and tiamulin which was used as a referent drug. […] Finally, MRSA was cultured for 30 generations with the same procedure. At the 31st generation, drugs were removed until 40th generation and MICs were determined in each generation.

[3] = system: GFP expression in S. aureus ATCC 29,213; assay: Green fluorescent protein (GFP) inhibition assay; type: cell-based, Staphylococcus aureus; details: 1 and 4 μM, co-incubation 4 h, fluorescence microscopy
Procedure: The inhibition assay against GFP expression was performed according to our previous report[41] with minor modification. Plasmids carried erythromycin resistant genes were labeled with GFP and electrotransformed into S. aureus. After screenings using erythromycin, S. aureus strain expressing GFP was then obtained and grown to mid-logarithmic phase, followed by collecting centrifugally and re-suspending with PBS buffer. The obtained suspensions were co-incubated with EDT and tiamulin with the final concentrations of 1 and 4 μM, respectively, for 4 h at 37 °C. The cells were subsequently collected by centrifugation to perform imaging using fluorescence microscopy after re-suspending with PBS buffer.

[4] = Cytotoxicity assay (CCK-8), HepG2; type: cell-based; details: human, HepG2 cells, read-out: cell viability
Procedure: Cytotoxicity of EDT and tiamulin was studied against human hepatocellular carcinoma cells (HepG2) and human embryonic kidney 293T (HEK293T) cells following a protocol as published in our earlier reports[41],[42]. Cells were counted and inoculated into 96-well plates with approximately10^5 cells density for incubating 24 h at 37 °C. […] The same procedure was repeated three times. The percentages of cell viability were calculated by the formula: Cell viability (%) = [Asample ‒ Anegative]/[Apositve ‒ Anegative] × 100%.

For `C=C[C@]1(C)C[C@@H](OC(=O)CSCCN(CC)CC)[C@]2(C)[C@H](C)CC[C@]3(CCC(=O)[C@H]32)[C@@H](C)[C@@H]1O` [tiamulin, Tiamulin fumarate, reference compound], which “PAE values, concentration dependence” value (MRSA-337371 [1]) is on record?
The value was “increased PAE values in a concentration-dependent manner”.

What about the MIC (MRSA-337371 [2]; 24 h, read-out: MIC in the resistance development study, day 1) of the same compound?
The MIC was 0.5 µg/mL.

And the MIC (MRSA-337371 [2]; 48 h, read-out: MIC in the resistance development study, day 2)?
Its MIC is 0.5 µg/mL.

And the MIC (MRSA-337371 [2]; 72 h, read-out: MIC in the resistance development study, day 3)?
Its MIC is 0.5 µg/mL.

What about the MIC (MRSA-337371 [2]; 96 h, read-out: MIC in the resistance development study, day 4) of the same compound?
Its MIC is 0.5 µg/mL.

And the MIC (MRSA-337371 [2]; 120 h, read-out: MIC in the resistance development study, day 5)?
Its MIC is 0.5 µg/mL.

And the MIC (MRSA-337371 [2]; 144 h, read-out: MIC in the resistance development study, day 6)?
The MIC was 0.5 µg/mL.

And the MIC (MRSA-337371 [2]; 168 h, read-out: MIC in the resistance development study, day 7)?
Its MIC is 1 µg/mL.

What about the MIC (MRSA-337371 [2]; 192 h, read-out: MIC in the resistance development study, day 8) of the same compound?
Its MIC is 1 µg/mL.

And the MIC (MRSA-337371 [2]; 216 h, read-out: MIC in the resistance development study, day 9)?
Its MIC is 1 µg/mL.

And the MIC (MRSA-337371 [2]; 240 h, read-out: MIC in the resistance development study, day 10)?
Its MIC is 1 µg/mL.

What about the MIC (MRSA-337371 [2]; 264 h, read-out: MIC in the resistance development study, day 11) of the same compound?
The MIC was 1 µg/mL.

And the MIC (MRSA-337371 [2]; 288 h, read-out: MIC in the resistance development study, day 12)?
The MIC was 1 µg/mL.

And the MIC (MRSA-337371 [2]; 312 h, read-out: MIC in the resistance development study, day 13)?
Its MIC is 1 µg/mL.

And the MIC (MRSA-337371 [2]; 336 h, read-out: MIC in the resistance development study, day 14)?
Its MIC is 2 µg/mL.

And the MIC (MRSA-337371 [2]; 360 h, read-out: MIC in the resistance development study, day 15)?
Its MIC is 1 µg/mL.

And the MIC (MRSA-337371 [2]; 384 h, read-out: MIC in the resistance development study, day 16)?
Its MIC is 2 µg/mL.

What about the MIC (MRSA-337371 [2]; 408 h, read-out: MIC in the resistance development study, day 17) of the same compound?
Its MIC is 2 µg/mL.

What about the MIC (MRSA-337371 [2]; 432 h, read-out: MIC in the resistance development study, day 18) of the same compound?
The MIC was 2 µg/mL.

What about the MIC (MRSA-337371 [2]; 456 h, read-out: MIC in the resistance development study, day 19) of the same compound?
The MIC was 2 µg/mL.

And the MIC (MRSA-337371 [2]; 480 h, read-out: MIC in the resistance development study, day 20)?
The MIC was 4 µg/mL.

And the MIC (MRSA-337371 [2]; 504 h, read-out: MIC in the resistance development study, day 21)?
Its MIC is 2 µg/mL.

And the MIC (MRSA-337371 [2]; 528 h, read-out: MIC in the resistance development study, day 22)?
The MIC was 4 µg/mL.

What about the MIC (MRSA-337371 [2]; 552 h, read-out: MIC in the resistance development study, day 23) of the same compound?
The MIC was 4 µg/mL.

What about the MIC (MRSA-337371 [2]; 576 h, read-out: MIC in the resistance development study, day 24) of the same compound?
Its MIC is 4 µg/mL.

What about the MIC (MRSA-337371 [2]; 600 h, read-out: MIC in the resistance development study, day 25) of the same compound?
The MIC was 4 µg/mL.

What about the MIC (MRSA-337371 [2]; 624 h, read-out: MIC in the resistance development study, day 26) of the same compound?
Its MIC is 4 µg/mL.

What about the MIC (MRSA-337371 [2]; 648 h, read-out: MIC in the resistance development study, day 27) of the same compound?
The MIC was 4 µg/mL.

What about the MIC (MRSA-337371 [2]; 672 h, read-out: MIC in the resistance development study, day 28) of the same compound?
The MIC was 4 µg/mL.

What about the MIC (MRSA-337371 [2]; 696 h, read-out: MIC in the resistance development study, day 29) of the same compound?
Its MIC is 4 µg/mL.

And the MIC (MRSA-337371 [2]; read-out: MIC in the resistance development study, day 30)?
Its MIC is 4 µg/mL.

And the MIC (MRSA-337371 [2]; read-out: MIC in the resistance development study, day 31, drugs removed)?
Its MIC is 4 µg/mL.

What about the MIC (MRSA-337371 [2]; read-out: MIC in the resistance development study, day 32, drugs removed) of the same compound?
The MIC was 4 µg/mL.

And the MIC (MRSA-337371 [2]; read-out: MIC in the resistance development study, day 33, drugs removed)?
The MIC was 2 µg/mL.

What about the MIC (MRSA-337371 [2]; read-out: MIC in the resistance development study, day 34, drugs removed) of the same compound?
The MIC was 2 µg/mL.

And the MIC (MRSA-337371 [2]; read-out: MIC in the resistance development study, day 35, drugs removed)?
The MIC was 2 µg/mL.

And the “increase in the MIC values” (MRSA-337371 [2]; after 7 generations of continuous culture of MRSA)?
Its value is “twofold”.

And the “sensitivity of MRSA after removing drugs” value (MRSA-337371 [2]; after removing drugs and culturing for additional 10 generations)?
Its value is “recovered the initial sensitivity”.

What about the “increase in the MIC values” (MRSA-337371 [2]; at 22 generations) of the same compound?
The value was “eightfold”.

What about the “inhibition of GFP expression (green fluorescence intensity)” value [3] of the same compound?
Its value is “inhibited GFP expression”.

And the viability at 6 h, 100 µM ([4]; HepG2, 100 μM)?
Its viability at 6 h, 100 µM is 60.8%.

What about the viability at 6 h, 200 µM ([4]; HepG2, 200 μM) of the same compound?
The viability at 6 h, 200 µM was 55.6%.
